Results reported in ChEMBL document CHEMBL5465560, “Selectivity Literature for EUbOPEN Chemogenomic Library” (2024).
One block for each molecule: values may come before it.

Key:
[1] = target: T1, Ephrin type-A receptor 8 (Homo sapiens) (UniProt P29322); experiment: Selectivity interaction (KinomeScan (DiscoverX)) EUB0001049a EPHA8; details: at 1 µM
T1 sequence (whole entry): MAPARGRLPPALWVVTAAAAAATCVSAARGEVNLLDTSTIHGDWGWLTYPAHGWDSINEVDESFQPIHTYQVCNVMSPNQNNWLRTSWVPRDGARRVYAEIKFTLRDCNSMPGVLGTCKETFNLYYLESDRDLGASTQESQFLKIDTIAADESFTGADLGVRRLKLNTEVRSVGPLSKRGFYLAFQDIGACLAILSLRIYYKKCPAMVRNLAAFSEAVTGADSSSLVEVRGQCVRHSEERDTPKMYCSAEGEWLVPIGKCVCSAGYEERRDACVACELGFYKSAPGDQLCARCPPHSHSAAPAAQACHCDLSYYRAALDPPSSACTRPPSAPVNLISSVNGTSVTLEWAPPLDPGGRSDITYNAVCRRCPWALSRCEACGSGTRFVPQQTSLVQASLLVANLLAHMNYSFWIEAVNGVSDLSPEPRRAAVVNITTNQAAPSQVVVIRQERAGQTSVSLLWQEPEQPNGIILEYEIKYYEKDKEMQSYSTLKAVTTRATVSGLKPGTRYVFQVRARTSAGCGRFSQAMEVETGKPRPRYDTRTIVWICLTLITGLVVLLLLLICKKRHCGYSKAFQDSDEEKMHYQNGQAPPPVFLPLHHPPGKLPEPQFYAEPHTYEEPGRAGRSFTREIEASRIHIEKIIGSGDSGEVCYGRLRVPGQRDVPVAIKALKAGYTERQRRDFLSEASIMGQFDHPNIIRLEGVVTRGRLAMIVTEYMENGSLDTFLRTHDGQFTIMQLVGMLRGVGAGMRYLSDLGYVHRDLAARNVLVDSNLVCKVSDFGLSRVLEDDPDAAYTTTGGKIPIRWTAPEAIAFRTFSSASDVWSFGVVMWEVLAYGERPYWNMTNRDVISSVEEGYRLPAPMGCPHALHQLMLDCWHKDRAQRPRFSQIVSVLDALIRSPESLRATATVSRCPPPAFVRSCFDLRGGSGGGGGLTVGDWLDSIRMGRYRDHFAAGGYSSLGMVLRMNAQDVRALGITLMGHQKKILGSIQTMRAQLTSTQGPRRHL

[2] = target: Tyrosine-protein kinase BAZ1B (Homo sapiens) (UniProt Q9UIG0); experiment: Selectivity interaction (Bromodomain panel (DSF asssay)) EUB0000270b BAZ1B
[3] = target: Glycogen synthase kinase-3 alpha (Homo sapiens, UniProt P49840); experiment: Selectivity interaction (Kinase panel (Z-LYTE Assay)) EUB0001632a GSK3A; details: at 10 µM
[4] = target: T2, Tyrosine-protein kinase JAK3 (Homo sapiens) (UniProt P52333); experiment: Selectivity interaction (ActivX KiNativ screen (ex vivo kinase selectivity in human PBMCs)) EUB0001619a JAK3; assay type: cell-based; details: PBMC, at 1 µM
T2 sequence (whole entry): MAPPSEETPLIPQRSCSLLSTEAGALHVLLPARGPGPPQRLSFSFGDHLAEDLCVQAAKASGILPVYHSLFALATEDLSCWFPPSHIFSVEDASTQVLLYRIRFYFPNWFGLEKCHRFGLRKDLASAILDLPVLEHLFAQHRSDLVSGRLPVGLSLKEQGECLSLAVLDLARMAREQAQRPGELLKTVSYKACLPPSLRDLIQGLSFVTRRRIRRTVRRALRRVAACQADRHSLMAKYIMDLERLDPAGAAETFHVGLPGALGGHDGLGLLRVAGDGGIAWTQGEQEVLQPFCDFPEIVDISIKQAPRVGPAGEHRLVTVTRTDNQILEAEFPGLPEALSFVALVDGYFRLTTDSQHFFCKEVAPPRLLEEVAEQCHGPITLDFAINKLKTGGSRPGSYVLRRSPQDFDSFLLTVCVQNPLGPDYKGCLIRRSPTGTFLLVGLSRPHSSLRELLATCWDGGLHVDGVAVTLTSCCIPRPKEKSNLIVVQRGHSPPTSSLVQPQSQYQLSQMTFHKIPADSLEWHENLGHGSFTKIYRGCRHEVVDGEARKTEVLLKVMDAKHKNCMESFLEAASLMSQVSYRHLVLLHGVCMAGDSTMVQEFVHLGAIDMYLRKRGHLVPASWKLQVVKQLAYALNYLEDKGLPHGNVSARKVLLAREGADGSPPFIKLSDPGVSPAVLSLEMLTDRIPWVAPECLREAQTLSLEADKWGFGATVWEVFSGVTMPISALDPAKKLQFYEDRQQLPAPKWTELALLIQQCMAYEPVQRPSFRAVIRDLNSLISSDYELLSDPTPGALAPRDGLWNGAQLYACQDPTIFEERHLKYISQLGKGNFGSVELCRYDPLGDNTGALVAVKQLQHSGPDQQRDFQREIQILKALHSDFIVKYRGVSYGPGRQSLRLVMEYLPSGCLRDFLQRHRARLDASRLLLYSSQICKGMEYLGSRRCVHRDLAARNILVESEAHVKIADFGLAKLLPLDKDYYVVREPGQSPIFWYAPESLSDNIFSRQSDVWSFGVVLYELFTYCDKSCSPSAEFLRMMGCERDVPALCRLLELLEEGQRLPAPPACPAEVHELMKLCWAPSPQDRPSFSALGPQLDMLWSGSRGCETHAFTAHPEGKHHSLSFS

[5] = target: Dual specificity protein kinase CLK4 (Homo sapiens, UniProt Q9HAZ1); experiment: Selectivity interaction (KinomeScan (DiscoverX)) EUB0000618a CLK4; details: at 10 µM
Chain of Dual specificity protein kinase CLK4 (Q9HAZ1 whole entry, looked up): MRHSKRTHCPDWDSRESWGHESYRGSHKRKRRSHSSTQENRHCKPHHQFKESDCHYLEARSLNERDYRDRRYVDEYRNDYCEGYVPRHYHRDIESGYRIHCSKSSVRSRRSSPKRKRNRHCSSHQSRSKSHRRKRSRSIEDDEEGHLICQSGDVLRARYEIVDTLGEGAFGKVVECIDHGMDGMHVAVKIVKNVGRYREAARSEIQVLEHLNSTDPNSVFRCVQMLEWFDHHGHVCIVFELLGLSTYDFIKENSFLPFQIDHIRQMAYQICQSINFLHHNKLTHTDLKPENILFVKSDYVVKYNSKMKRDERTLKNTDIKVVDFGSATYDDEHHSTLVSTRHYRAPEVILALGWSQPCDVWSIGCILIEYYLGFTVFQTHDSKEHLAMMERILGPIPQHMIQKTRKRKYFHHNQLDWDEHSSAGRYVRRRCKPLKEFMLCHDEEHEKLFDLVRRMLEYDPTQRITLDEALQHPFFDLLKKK

Chain of Tyrosine-protein kinase BAZ1B (Homo sapiens) (Q9UIG0 whole entry): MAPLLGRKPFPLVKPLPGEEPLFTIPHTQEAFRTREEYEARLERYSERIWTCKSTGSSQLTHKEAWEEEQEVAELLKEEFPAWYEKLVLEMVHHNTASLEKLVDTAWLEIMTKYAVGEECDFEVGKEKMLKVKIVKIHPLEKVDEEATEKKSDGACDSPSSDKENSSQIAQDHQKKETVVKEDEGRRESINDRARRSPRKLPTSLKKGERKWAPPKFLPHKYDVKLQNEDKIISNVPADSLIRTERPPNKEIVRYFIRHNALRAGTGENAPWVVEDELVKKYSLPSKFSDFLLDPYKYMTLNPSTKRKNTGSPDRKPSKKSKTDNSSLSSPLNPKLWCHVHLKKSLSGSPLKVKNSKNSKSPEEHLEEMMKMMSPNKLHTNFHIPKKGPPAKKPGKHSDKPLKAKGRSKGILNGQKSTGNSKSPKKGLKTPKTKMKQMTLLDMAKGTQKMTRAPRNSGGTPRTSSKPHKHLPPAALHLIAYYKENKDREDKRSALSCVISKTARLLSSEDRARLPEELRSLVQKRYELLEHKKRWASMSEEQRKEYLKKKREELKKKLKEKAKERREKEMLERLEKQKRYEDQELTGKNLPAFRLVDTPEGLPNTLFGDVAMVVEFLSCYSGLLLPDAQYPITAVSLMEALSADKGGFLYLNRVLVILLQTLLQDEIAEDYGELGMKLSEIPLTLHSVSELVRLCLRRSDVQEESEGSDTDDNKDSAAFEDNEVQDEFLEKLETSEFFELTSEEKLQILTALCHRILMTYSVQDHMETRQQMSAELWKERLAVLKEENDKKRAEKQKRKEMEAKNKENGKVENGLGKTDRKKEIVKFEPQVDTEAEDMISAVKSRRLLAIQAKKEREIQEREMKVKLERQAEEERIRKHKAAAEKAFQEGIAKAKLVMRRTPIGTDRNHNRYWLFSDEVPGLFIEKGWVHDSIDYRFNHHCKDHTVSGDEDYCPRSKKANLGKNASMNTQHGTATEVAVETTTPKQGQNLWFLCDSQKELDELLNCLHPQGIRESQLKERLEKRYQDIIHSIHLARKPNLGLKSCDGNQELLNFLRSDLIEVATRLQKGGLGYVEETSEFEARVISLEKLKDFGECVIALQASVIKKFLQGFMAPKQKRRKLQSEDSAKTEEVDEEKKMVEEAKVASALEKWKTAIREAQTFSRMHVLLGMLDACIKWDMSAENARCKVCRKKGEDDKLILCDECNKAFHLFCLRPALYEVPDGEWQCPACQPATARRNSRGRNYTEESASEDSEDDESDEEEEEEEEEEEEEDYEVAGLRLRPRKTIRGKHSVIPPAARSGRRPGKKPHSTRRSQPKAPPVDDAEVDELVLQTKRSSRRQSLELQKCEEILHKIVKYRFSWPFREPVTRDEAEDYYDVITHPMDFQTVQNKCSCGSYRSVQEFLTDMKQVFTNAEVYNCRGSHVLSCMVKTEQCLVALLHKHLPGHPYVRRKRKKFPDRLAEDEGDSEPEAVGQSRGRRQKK
Chain of Glycogen synthase kinase-3 alpha (P49840 2-483 limits assumed): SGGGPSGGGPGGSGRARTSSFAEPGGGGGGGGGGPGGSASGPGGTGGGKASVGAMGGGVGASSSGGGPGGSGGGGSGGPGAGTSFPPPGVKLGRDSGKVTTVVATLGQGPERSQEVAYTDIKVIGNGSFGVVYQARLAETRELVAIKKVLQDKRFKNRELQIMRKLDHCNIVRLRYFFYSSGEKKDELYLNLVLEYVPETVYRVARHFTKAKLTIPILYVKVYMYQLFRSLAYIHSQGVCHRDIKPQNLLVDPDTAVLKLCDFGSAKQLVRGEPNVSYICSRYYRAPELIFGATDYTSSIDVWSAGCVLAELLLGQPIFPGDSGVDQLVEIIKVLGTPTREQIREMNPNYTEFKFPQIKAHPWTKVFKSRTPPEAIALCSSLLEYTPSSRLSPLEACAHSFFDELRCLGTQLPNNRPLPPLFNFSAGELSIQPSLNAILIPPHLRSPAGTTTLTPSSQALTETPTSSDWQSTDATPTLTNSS

SMILES: COc1cc(Nc2nc(C)cc(-c3cnn4nc(OC)ccc34)n2)cc(C(F)(F)F)c1
% of control [1]: 81%

dTM [2]: -1.22 K
SMILES: Cc1cc(CN)cc(C)c1-c1ncn(C)c1-c1cncn1C

% of control [3]: 82.2%
SMILES: Cn1cc(-n2cnc3c(NCc4nc5cc(Cl)c(Cl)cc5[nH]4)nc(N4CCOCC4)nc32)cn1

SMILES: N#Cc1cccc(-c2c[nH]c3ncnc(N4CCOCC4)c23)c1
% of inhibition [4]: 7%

SMILES: O[C@H]1CC[C@H](Nc2ncc3nc(Nc4c(F)cc(F)cc4F)n([C@H]4CCOC4)c3n2)CC1
% of control [5]: 100%
